Test results as given in patent US11427553B2, “Dihydrooxadiazinones” (Bayer Aktiengesellschaft, priority 2017, dated 2022).

Key:
human full length PDE3B = human full length PDE3B (Homo sapiens (Human), UniProt Q13370); experiment: Assay 5 PDE3B enzyme inhibition (3H-cAMP SPA); format: biochemical; conditions: Sf9 cell extract
Method in brief: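 Hydrolysis of tritiated cAMP by Sf9-expressed full-length human PDE3B proceeded 60 min at room temperature in Tris buffer pH 7.5 containing Mg2+, EDTA and BSA, with enzyme dilution keeping substrate consumption below 70%. IC50 derived from percent activity versus log compound concentration.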

HeLa cells = experiment: Assay 1 cell proliferation measurement (CTG, 72 h), HeLa; format: cell-based, human; conditions: Homo sapiens, HeLa; Assay 1, 72 h, Cell Titer Glo; read-out: HeLa IC50 [nM] (Cervical cancer)
Method in brief: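 Cells were plated, grown overnight at 37 °C, then treated 72 h with a 10-step 2.5-fold dilution series from 100 nM maximum final (0.3% DMSO vehicle). Viability was read by CellTiter-Glo luminescence. IC50 from a 4-parameter fit, normalised to a 0 h plate (maximum inhibition) and DMSO control (minimum inhibition).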

IGR37 cells = experiment: Assay 1 cell proliferation measurement (CTG, 72 h), IGR37; format: cell-based; conditions: Homo sapiens, IGR-37, Cell Titer Glo, read-out: IGR37 IC50 [nM] (melanoma)
L3.3 cells = experiment: Assay 2 cell proliferation measurement, L3.3; format: cell-based; conditions: Homo sapiens, Pancreas NS, read-out: Anti-proliferation IC50 [nM] L3.3
Protocol: Cell Proliferation Measurement
The antiproliferative activity of the compounds of the general formula (I) was examined in vitro in human cancer cells. For this purpose, 500 cells, including HeLa cells, A2058 cells, DU145 cells, HMCB cells, IGR37 cells, NCIH1734 cells, OSRC2 cells, or 750 cells, including CAL51 cells, COL0741 cells, DBTRG05MG cells, DKMG cells, G292CLONEA141B1 cells, GB1 cells, HEL cells, HEL9217 cells, JHUEM1 cells, L3.3 cells, LI7 cells, TE4 cells, or 1000 cells, including 8505C cells, HUT78 cells, NCIH1563 cells, NCIH2122 cells, NCIH2172 cells, RVH421 cells, SKMEL3 cells, or 1500 cells, including C32 cells, HS578T cells, JHOM1 cells, NCIH196 cells, OVKATE cells, were plated in 384-well plates with appropriate growth medium and incubated at 37° C. overnight. After 24 h, the cells on the test plate were treated with the compounds of the general formula (I) as and incubated at 37° C. for 72 h. The compounds were added to the cells by means of an HP D300 digital dispenser in a 10 (or more)-step dilution series. As control, the cells were treated with vehicle (DMSO at 0.3% final concentration). After 72 h, the cells were treated with 20 μl/well of 50% CTG solution in PBS (Promega Cell Titer Glo (catalogue #G755B and G756B)) and incubated at room temperature for 10 min, and luminescence was measured by means of a VICTOR V (Perkin Elmer), in order to determine cell viability at the end of treatment. The percentage effect on cell growth and the IC50 derived therefrom were determined for each test substance using the values from untreated wells (=percent viability). The IC50 values were calculated using a 4-parameter fit.

Sequence of human full length PDE3B (Q13370 whole entry): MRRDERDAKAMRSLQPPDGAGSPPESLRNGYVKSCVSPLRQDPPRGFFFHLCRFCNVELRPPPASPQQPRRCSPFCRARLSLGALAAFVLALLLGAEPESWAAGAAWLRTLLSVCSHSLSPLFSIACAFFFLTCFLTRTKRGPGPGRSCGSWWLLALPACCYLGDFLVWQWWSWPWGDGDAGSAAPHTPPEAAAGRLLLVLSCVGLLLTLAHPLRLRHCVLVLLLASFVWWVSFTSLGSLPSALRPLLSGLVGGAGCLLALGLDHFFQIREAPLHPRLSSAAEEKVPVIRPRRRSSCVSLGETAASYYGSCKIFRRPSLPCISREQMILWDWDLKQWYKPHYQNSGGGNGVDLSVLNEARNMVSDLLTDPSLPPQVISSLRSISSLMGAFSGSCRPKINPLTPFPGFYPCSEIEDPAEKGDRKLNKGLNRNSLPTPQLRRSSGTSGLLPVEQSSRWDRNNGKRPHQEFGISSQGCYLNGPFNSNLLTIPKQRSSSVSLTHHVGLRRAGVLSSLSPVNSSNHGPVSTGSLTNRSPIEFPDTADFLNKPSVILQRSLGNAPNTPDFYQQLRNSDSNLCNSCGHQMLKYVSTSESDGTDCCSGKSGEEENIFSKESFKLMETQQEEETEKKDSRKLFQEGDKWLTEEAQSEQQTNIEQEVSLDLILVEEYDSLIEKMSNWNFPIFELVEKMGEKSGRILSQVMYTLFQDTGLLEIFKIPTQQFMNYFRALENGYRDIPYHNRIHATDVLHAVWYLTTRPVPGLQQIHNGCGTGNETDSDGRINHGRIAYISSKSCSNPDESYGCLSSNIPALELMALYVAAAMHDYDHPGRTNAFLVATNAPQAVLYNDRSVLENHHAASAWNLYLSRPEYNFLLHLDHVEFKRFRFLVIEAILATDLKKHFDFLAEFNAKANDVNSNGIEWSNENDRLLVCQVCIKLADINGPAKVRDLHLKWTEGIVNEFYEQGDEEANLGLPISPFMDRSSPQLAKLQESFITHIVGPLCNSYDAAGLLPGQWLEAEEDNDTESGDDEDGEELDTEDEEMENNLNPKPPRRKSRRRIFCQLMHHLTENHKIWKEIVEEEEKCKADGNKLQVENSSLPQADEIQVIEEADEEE

Structure (SMILES) | IC50 (human full length PDE3B) [nM] | IC50 (HeLa cells) [nM] | IC50 (IGR37 cells) [nM] | IC50 (L3.3 cells) [nM]
O=C1NN=C(c2ccc(-c3ccc(F)cc3)c(C(F)(F)F)c2)CO1 [Example 3, 5-[4′-Fluoro-2-(trifluoromethyl)biphenyl-4-yl]-3,6-dihydro-2H-1,3,4-oxadiazin-2-one] | 197 | 3 |  | 
O=C1NN=C(c2ccc(-c3ccc(Cl)cc3)c(C(F)(F)F)c2)CO1 [Example 31, 5-[4′-Chloro-2-(trifluoromethyl)biphenyl-4-yl]-3,6-dihydro-2H-1,3,4-oxadiazin-2-one] | 603 | 4 | 14 | 

Now those with a lower IC50 (HeLa cells), led by results:

IC50 (human full length PDE3B) [nM] | IC50 (HeLa cells) [nM] | Structure (SMILES) | IC50 (IGR37 cells) [nM] | IC50 (L3.3 cells) [nM]
50 | 1 | C[C@@H]1OC(=O)NN=C1c1ccc(-c2ccc(F)cc2)c(C(F)(F)F)c1 [Example 135, (6S)-5-[4′-Fluoro-2-(trifluoromethyl)biphenyl-4-yl]-6-methyl-3,6-dihydro-2H-1,3,4-oxadiazin-2-one] | 3 | 82
80 | 1 | O=C1NN=C(c2ccc(-c3cnn(C(F)F)c3)c(C(F)(F)F)c2)CO1 [Example 146, 5-{4-[1-(Difluoromethyl)-1H-pyrazol-4-yl]-3-(trifluoromethyl)phenyl}-3,6-dihydro-2H-1,3,4-oxadiazin-2-one] | 2 | 15
 | 2 | C[C@@H]1OC(=O)NN=C1c1ccc(-n2ccc(C(F)(F)F)n2)c(C(F)(F)F)c1 [Example 265, (6S)-6-Methyl-5-{3-(trifluoromethyl)-4-[3-(trifluoromethyl)-1H-pyrazol-1-yl]phenyl}-3,6-dihydro-2H-1,3,4-oxadiazin-2-one] | 7 | 312
